Read-outs that look alike come from different tables or passages of the source.
Experiments:
[1] = molecular target: T1, full-length beta-Catenin (Uniprot ID P35222) (Homo sapiens, UniProt P35222); test: Fluorescence polarization IC50 (beta-catenin / 5FAM-TCF4 10-53 competition); assay type: binding
T1 construct: 10 nM full-length beta-Catenin (Uniprot ID P35222)
T1 sequence (P35222 1-781): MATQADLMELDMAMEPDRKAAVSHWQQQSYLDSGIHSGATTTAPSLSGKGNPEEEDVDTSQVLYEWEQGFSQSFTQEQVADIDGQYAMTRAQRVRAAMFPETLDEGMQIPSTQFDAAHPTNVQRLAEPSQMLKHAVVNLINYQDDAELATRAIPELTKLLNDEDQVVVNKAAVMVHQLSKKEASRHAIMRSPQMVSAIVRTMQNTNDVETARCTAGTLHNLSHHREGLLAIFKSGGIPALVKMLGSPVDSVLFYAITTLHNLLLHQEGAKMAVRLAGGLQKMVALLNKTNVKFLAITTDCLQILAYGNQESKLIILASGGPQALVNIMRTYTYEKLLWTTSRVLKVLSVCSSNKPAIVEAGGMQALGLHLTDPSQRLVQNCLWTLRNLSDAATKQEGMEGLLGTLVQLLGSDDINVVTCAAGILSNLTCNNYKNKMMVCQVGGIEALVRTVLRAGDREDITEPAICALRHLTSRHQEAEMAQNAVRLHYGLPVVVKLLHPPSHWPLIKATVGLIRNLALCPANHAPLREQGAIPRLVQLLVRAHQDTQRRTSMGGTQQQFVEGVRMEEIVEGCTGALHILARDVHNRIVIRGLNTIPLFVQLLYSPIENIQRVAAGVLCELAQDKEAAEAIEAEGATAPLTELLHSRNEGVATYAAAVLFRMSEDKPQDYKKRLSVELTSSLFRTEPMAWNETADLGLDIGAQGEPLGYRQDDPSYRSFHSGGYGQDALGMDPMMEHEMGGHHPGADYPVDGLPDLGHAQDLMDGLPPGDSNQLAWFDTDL

[2] = CHI Log D procedure; assay type: physicochemical; details: for chromatographic logD: pH 7.4, CHI Log D; for CHI Log D: pH 7.4
[3] = molecular target: T2, full-length B-Catenin (Uniprot ID P35222) (Homo sapiens, UniProt P35222); test: Alphascreen binding assay (beta-catenin / biotin-TCF4 10-53)
T2 construct: 65 nM full-length B-Catenin (Uniprot ID P35222)
T2 sequence (P35222 1-781): T1 sequence (P35222 1-781)
In short: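 Final concentrations: 65 nM full-length human β-catenin plus 10 nM biotin-TCF4(10-53) peptide, test peptide 3-fold from 10 uM to 5 nM, preincubated 15 min at 20 °C in Tris pH 8.0/250 mM NaCl buffer. Nickel-chelate AlphaScreen donor/acceptor beads then added for 60 min in the dark; duplicate reads fitted to 1:1 binding model with Hill slope.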

[4] = Table E2-1, read-out: beta-Catenin FP IC50
[5] = fluorescence polarization, beta-catenin, read-out: FP EC50

Row | IC50 [1, 4] [nM] | chromatographic logD [2] | EC50 [3] [nM] | IC50 [1, 5] [nM] | CHI Log D [2] | SMILES
1 | 1980 | 2.11 | 83 |  |  | CC(=O)N1CCC[C@]12CC=CCCCC1(CCCC=CCCCCCC[C@@](C)(C(=O)N[C@@H](Cc3ccccc3)C(=O)N[C@@H](Cc3c[nH]c4ccccc34)C(=O)N[C@@H](CCC(N)=O)C(N)=O)NC(=O)[C@H](C(C)C)NC(=O)[C@H](Cc3ccccc3)NC(=O)[C@H](C)NC(=O)[C@H](C)NC(=O)[C@H](CCCC(=O)O)NC(=O)[C@H](CC(=O)O)NC1=O)NC(=O)[C@H](C)NC(=O)[C@H](CC(=O)O)NC2=O (stereo partly drawn) [I-129, Ac-PL3-Asp-Ala-B5-Asp-Aad-Ala-Ala-Phe-Val-S8-Phe-Trp-Gln-NH2]
2 | 2700 |  | 99 | 2700 | 2.426 | CC(=O)N1CCC[C@]12CC=CCCCC1(CCCC=CCCCCCC[C@@](C)(C(=O)N[C@@H](Cc3ccccc3)C(=O)N[C@@H](Cc3c[nH]c4ccccc34)C(=O)NC(C)(C)C(N)=O)NC(=O)[C@H](C(C)C)NC(=O)[C@H](Cc3ccccc3)NC(=O)[C@H](C)NC(=O)[C@H](C)NC(=O)[C@H](CCC(=O)O)NC(=O)[C@H](CC(=O)O)NC1=O)NC(=O)[C@H](C)NC(=O)[C@H](CC(=O)O)NC2=O (stereo partly drawn) [I-134, Ac-PL3-Asp-Ala-B5-Asp-Glu-Ala-Ala-Phe-Val-S8-Phe-Trp-Aib-NH2]
3 | 147 | 2.12 | 66 |  |  | CC(=O)N1CCC[C@]12CC=CCCCC1(CCCC=CCCCCCC[C@@](C)(C(=O)N[C@@H](Cc3ccccc3)C(=O)N[C@@H](Cc3csc4ccccc34)C(=O)N[C@@H](CCC(N)=O)C(N)=O)NC(=O)[C@H](C(C)C)NC(=O)[C@H](Cc3ccccc3)NC(=O)[C@H](C)NC(=O)[C@H](C)NC(=O)[C@H](CCC(=O)O)NC(=O)[C@H](CC(=O)O)NC1=O)NC(=O)[C@H](C)NC(=O)[C@H](CC(=O)O)NC2=O (stereo partly drawn) [I-144, Ac-PL3-Asp-Ala-B5-Asp-Glu-Ala-Ala-Phe-Val-S8-Phe-BztA-Gln-NH2]
4 | 2770 | 1.36 | 398 |  |  | CC[C@H](C)[C@H](NC(=O)[C@H](CC(=O)O)NC(=O)[C@H](C)NC(C)=O)C(=O)N[C@]1(C)CCN(C)C(=O)OCC=CCCCCC[C@@](C)(C(=O)N[C@@H](Cc2ccccc2)C(=O)N[C@@H](Cc2c[nH]c3ccccc23)C(N)=O)NC(=O)[C@H](CCC(N)=O)NC(=O)[C@H](Cc2ccccc2)NC(=O)[C@H](C)NC(=O)[C@H](C)NC(=O)[C@H](CCC(=O)O)NC(=O)[C@H](CC(=O)O)NC1=O [I-148, Ac-Ala-Asp-Ile-RdN-Asp-Glu-Ala-Ala-Phe-Gln-S7-Phe-Trp-NH2]
5 | 2140 | 1.32 | 153 |  |  | CC[C@H](C)[C@H](NC(=O)[C@H](CC(=O)O)NC(=O)[C@H](C)NC(C)=O)C(=O)N[C@]1(C)CCN(C)C(=O)OCC=CCCCCC[C@@](C)(C(=O)N[C@@H](Cc2ccccc2)C(=O)N[C@@H](Cc2c[nH]c3ccccc23)C(=O)N[C@@H](C)C(N)=O)NC(=O)[C@H](CCC(N)=O)NC(=O)[C@H](Cc2ccccc2)NC(=O)[C@H](C)NC(=O)[C@H](C)NC(=O)[C@H](CCC(=O)O)NC(=O)[C@H](CC(=O)O)NC1=O [I-153, Ac-Ala-Asp-Ile-RdN-Asp-Glu-Ala-Ala-Phe-Gln-S7-Phe-Trp-Ala-NH2]
6 | 1760 |  | 116 | 1760 | 2.242 | CC[C@H](C)[C@@H]1NC(=O)[C@H](CC(=O)O)NC(=O)[C@]2(CC=CCCCC3(CCCC=CCCCCCC[C@@](C)(C(=O)N[C@@H](Cc4ccccc4)C(=O)N[C@@H](Cc4c[nH]c5ccccc45)C(=O)N[C@@H](Cc4c[nH]cn4)C(N)=O)NC(=O)[C@H](CCC(N)=O)NC(=O)[C@H](Cc4ccccc4)NC(=O)[C@H](C)NC(=O)[C@H](C)NC(=O)[C@H](CC(=O)O)NC(=O)[C@H](CC(=O)O)NC3=O)NC1=O)CCCN2C(C)=O (stereo partly drawn) [I-174, Ac-PL3-Asp-Ile-B5-Asp-Asp-Ala-Ala-Phe-Gln-S8-Phe-Trp-His-NH2]
7 | 1990 |  | 549 | 1990 | 2.58 | CC[C@H](C)[C@@H]1NC(=O)[C@H](CC(=O)O)NC(=O)[C@]2(CC=CCCCC3(CCCC=CCCCCCC[C@@](C)(C(=O)N[C@@H](Cc4ccccc4)C(=O)N[C@@H](Cc4c[nH]c5ccccc45)C(=O)N[C@@H](Cc4c[nH]cn4)C(N)=O)NC(=O)[C@H](C(C)C)NC(=O)[C@H](Cc4ccccc4)NC(=O)[C@H](C)NC(=O)[C@H](C)NC(=O)[C@H](CCC(=O)O)NC(=O)[C@H](CC(=O)O)NC3=O)NC1=O)CCCN2C(C)=O (stereo partly drawn) [I-176, Ac-PL3-Asp-Ile-B5-Asp-Glu-Ala-Ala-Phe-Val-S8-Phe-Trp-His-NH2]
8 | 1630 |  | 152 | 1630 | 1.913 | CC(=O)N1CCC[C@]12CC=CCCCC1(CCCC=CCCCCCC[C@@](C)(C(=O)N[C@@H](Cc3ccccc3)C(=O)N[C@@H](Cc3c[nH]c4ccccc34)C(=O)N[C@@H](Cc3c[nH]cn3)C(N)=O)NC(=O)[C@H](CCC(N)=O)NC(=O)[C@H](Cc3ccccc3)NC(=O)[C@H](C)NC(=O)[C@H](C)NC(=O)[C@H](CCC(=O)O)NC(=O)[C@H](CC(=O)O)NC1=O)NC(=O)[C@H](C)NC(=O)[C@H](CC(=O)O)NC2=O (stereo partly drawn) [I-178, Ac-PL3-Asp-Ala-B5-Asp-Glu-Ala-Ala-Phe-Gln-S8-Phe-Trp-His-NH2]
9 | 56 |  | 88 |  | 2.193 | CC[C@H](C)[C@@H]1NC(=O)[C@H](CC(=O)O)NC(=O)[C@]2(CC=CCCCC3(CCCC=CCCCCCC[C@@](C)(C(=O)N[C@@H](Cc4ccccc4)C(=O)N[C@@H](Cc4c[nH]c5ccccc45)C(=O)N[C@@H](CCC(N)=O)C(N)=O)NC(=O)[C@H](CCC(N)=O)NC(=O)[C@H](Cc4ccccc4)NC(=O)[C@H](C)NC(=O)[C@H](C)NC(=O)[C@H](CCC(=O)O)NC(=O)[C@H](CC(=O)O)NC3=O)NC1=O)CCCN2C(C)=O (stereo partly drawn) [I-180, Ac-PL3-Asp-Ile-B5-Asp-Glu-Ala-Ala-Phe-Gln-S8-Phe-Trp-Gln-NH2]
10 | 310 |  | 51 | 310 | 2.213 | CC[C@H](C)[C@@H]1NC(=O)[C@H](CC(=O)O)NC(=O)[C@]2(CC=CCCCC3(CCCC=CCCCCCC[C@@](C)(C(=O)N[C@@H](Cc4ccccc4)C(=O)N[C@@H](Cc4c[nH]c5ccccc45)C(=O)N[C@@H](CCC(N)=O)C(N)=O)NC(=O)[C@H](CCC(N)=O)NC(=O)[C@H](Cc4ccccc4)NC(=O)[C@H](C)NC(=O)[C@H](C)NC(=O)[C@H](CCC(=O)O)NC(=O)[C@H](CC(=O)O)NC3=O)NC1=O)CCCN2C(C)=O (stereo partly drawn) [I-181, Ac-PL3-Asp-Ile-B5-Asp-Glu-Ala-Ala-Phe-Gln-S8-Phe-Trp-Gln-NH2]
11 | 1600 |  | 156 | 1600 | 1.611 | CC[C@H](C)[C@@H]1NC(=O)[C@H](CC(=O)O)NC(=O)[C@]2(CC=CCCCC3(CCCC=CCOC(=O)N(C)CCC[C@@](C)(C(=O)N[C@@H](Cc4ccccc4)C(=O)N[C@@H](Cc4c[nH]c5ccccc45)C(=O)N[C@@H](Cc4c[nH]cn4)C(N)=O)NC(=O)[C@H](CCC(N)=O)NC(=O)[C@H](Cc4ccccc4)NC(=O)[C@H](C)NC(=O)[C@H](C)NC(=O)[C@H](CC(=O)O)NC(=O)[C@H](CC(=O)O)NC3=O)NC1=O)CCCN2C(C)=O (stereo partly drawn) [I-188, Ac-PL3-Asp-Ile-B5-Asp-Asp-Ala-Ala-Phe-Gln-SeN-Phe-Trp-His-NH2]
12 |  |  | 156 | 1600 | 1.611 | CC[C@H](C)[C@@H]1NC(=O)[C@H](CC(=O)O)NC(=O)[C@]2(CC=CCCCC3(CCCC=CCOC(=O)N(C)CCC[C@@](C)(C(=O)N[C@@H](Cc4ccccc4)C(=O)N[C@@H](Cc4c[nH]c5ccccc45)C(=O)N[C@@H](Cc4c[nH]cn4)C(N)=O)NC(=O)[C@H](CCC(N)=O)NC(=O)[C@H](Cc4ccccc4)NC(=O)[C@H](C)NC(=O)[C@H](C)NC(=O)[C@H](CC(=O)O)NC(=O)[C@H](CC(=O)O)NC3=O)NC1=O)CCCN2C(C)=O (stereo partly drawn) [I-189, Ac-PL3-Asp-Ile-B5-Asp-Asp-Ala-Ala-Phe-Gln-SeN-Phe-Trp-His-NH2]
13 | 696 |  | 94 | 696 | 1.736 | CC[C@H](C)[C@@H]1NC(=O)[C@H](CC(=O)O)NC(=O)[C@]2(CC=CCCCC3(CCCC=CCOC(=O)N(C)CCC[C@@](C)(C(=O)N[C@@H](Cc4ccccc4)C(=O)N[C@@H](Cc4c[nH]c5ccccc45)C(=O)N[C@@H](Cc4c[nH]cn4)C(N)=O)NC(=O)[C@H](CCC(N)=O)NC(=O)[C@H](Cc4ccccc4)NC(=O)[C@H](C)NC(=O)[C@H](C)NC(=O)[C@H](CC(=O)O)NC(=O)[C@H](CC(=O)O)NC3=O)NC1=O)CCCN2C(C)=O (stereo partly drawn) [I-190, Ac-PL3-Asp-Ile-B5-Asp-Asp-Ala-Ala-Phe-Gln-SeN-Phe-Trp-His-NH2]

Source: patent US20240116985A1, “STAPLED PEPTIDES AND METHODS THEREOF” (priority 2020, published 2024)
